# Measured values published in patent US20250129103A1, “METHODS FOR TREATMENT OF CANCER” (Frontier Medicines Corporation, priority 2022, published 2025).
# Legend:
# [1] = Determination of logD (1-octanol / phosphate buffer pH 7.4); assay type: physicochemical; settings: for logD: 1-octanol/phosphate buffer, pH 7.4, pH 7.4, 1-octanol/phosphate buffer, read-out: Log D, pH 7.4
# Experimental: Preparation of phosphate buffer saturated with 1-octanol: 10 mL of 100 mM phosphate buffer (pH 7.4) was added to 100 mL of 1-octanol. The mixture was shaken vigorously and left to stand at room temperature overnight.
# Preparation of 1-octanol saturated with phosphate buffer: 10 mL of 1-octanol was added to 100 mL of 100 mM phosphate buffer (pH 7.4). The mixture was shaken vigorously and left to stand at room temperature overnight.
# 149 μL of phosphate buffer saturated with 1-octanol was added into 1st sample tube. 149 μL of 1-octanol saturated with phosphate buffer was added into the 2nd sample tube. The sample tubes were mixed vigorously and shaken for 1 hour at a speed of 800 rpm at room temperature. The sample tubes were subjected to centrifugation at 4000 rpm for 5 minutes at room temperature. Samples of the supernatant were taken from both tubes, diluted with an appropriate LCMS buffer, and analyzed on an LCMS instrument. LogD was calculated according to the following equation.
# [2] = molecular target: KRAS G12C (GMPPNP-loaded) and cRAF (Ras-binding domain) interaction (Homo sapiens (Human), UniProt P01116, C118S/C51S/C80L/G12C); experiment: Inhibition of KRAS G12C and cRAF binding (AlphaScreen); settings: KRAS G12C loaded with GMPPNP, cRaf RBD, 2 hours preincubation; read-out: Raf-1 RBD K-Ras IC50
# Chain of KRAS G12C (GMPPNP-loaded) and cRAF (Ras-binding domain) interaction (P01116 other isoform, or with tags, fused parts or gaps G12C/C51S/C80L/C118S): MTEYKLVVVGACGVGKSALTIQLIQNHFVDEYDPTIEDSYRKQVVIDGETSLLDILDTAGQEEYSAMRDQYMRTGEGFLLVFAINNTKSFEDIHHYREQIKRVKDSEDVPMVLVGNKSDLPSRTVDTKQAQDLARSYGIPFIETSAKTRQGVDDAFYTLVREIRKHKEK
# Experimental: Compounds were diluted in 100% DMSO and each compound concentration was spotted at 200 nl/well onto low volume, white 384 well plates. […] KRAS G12C was preloaded with the GTP analogue Guanosine 5′-[β,γ-imido]triphosphate (GMPPNP). The KRAS G12C was diluted in 25 mM Hepes, pH 7.4, 150 mM NaCl, 5 mM MgCl2, 0.01% TritonX-100 and 10 μM GMPPNP and added at 10 ul/well to compound-spotted plates resulting in a DMSO concentration of 2%. Plates were incubated for 2 hours. A mixture of RBD and the AlphaScreen streptavidin donor and glutathione acceptor beads diluted in 25 mM Hepes, pH 7.4, 150 mM NaCl, 5 mM MgCl2, 0.01% TritonX-100 and 2% DMSO was then added at 10 ul/well and incubated for 60-90 minutes before the samples were read for emission at 570 nm after excitation of the donor beads at 680 nm. All incubations were performed at room temperature. The final top compound concentration was 50 μM with 1:3 titrations for 10-point dose response curves. […] IC50S were determined using nonlinear regression fit of [inhibitor] vs. response (4 parameters). […]
# [3] = Determination of kinetic solubility (pH 7.4); assay type: physicochemical; settings: for solubility kinetic at 2 h: phosphate buffer, pH 7.4, aqueous buffer, kinetic from dmso stock, 50 mM phosphate buffer pH 7.4, read-out: Ksol, pH 7.4
# Experimental: 490 μL of a 50 mM phosphate buffer (pH 7.4) was added to the sample solution. The mixture was vortexed for at least 2 minutes. The vial was shaken on a Barnstead shaker at 800 rpm at room temperature for 2 hours. The vial was centrifuged at 4000 rpm for 20 minutes. The Mini-UniPrep vial was compressed to prepare a filtrate, which was injected into an HPLC-UV and LC-MS/MS system. Kinetic solubility was calculated by referencing sample peak areas to a standard calibration curve.
SMILES,IC50 [2] [nM],solubility kinetic at 2 h [3] [µg/mL],further results
"N#CC[C@H]1CN(c2nc(OC[C@@]34CCCN3C[C@H](F)C4)nc3c(F)c(-c4cccc5cccc(Cl)c45)ncc23)CCN1C(=O)/C=C/c1nc([C@H]2C[C@@H]2F)no1 [Compound 15, 2-((S)-4-(7-(8-chloronaphthalen-1-yl)-8-fluoro-2-(((2R,7aS)-2-fluorotetrahydro-1H-pyrrolizin-7a(5H)-yl)methoxy)pyrido[4,3-d]pyrimidin-4-yl)-1-((E)-3-(3-((1R,2S)-2-fluorocyclopropyl)-1,2,4-oxadiazol-5-yl)acryloyl)piperazin-2-yl)acetonitrile]",100 to 500,0.01,logD [1]: 4.24
Cn1cnc(/C=C/C(=O)N2CCN(c3nc(OCC45CCCN4CCC5)nc4c3CCN(c3cccc5cccc(Cl)c35)C4)C[C@@H]2CC#N)n1 [Compound 21],> 500,89.8,logD [1]: 2.48
Cn1cnc(/C=C/C(=O)N2CCN(c3nc(OCC45CCCN4CCC5)nc4c3CCN(c3cccc5cccc(Cl)c35)C4)C[C@@H]2CC#N)c1 [Compound 22],> 500,77.7,logD [1]: 2.92
N#CC[C@H]1CN(c2nc(OCC34CCCN3CCC4)nc3c(F)c(-c4cccc5cccc(Cl)c45)ncc23)CCN1C(=O)/C=C/c1nc(C2CC2)no1 [Compound 24],100 to 500,38.5,logD [1]: 2.71
Cc1noc(/C=C/C(=O)N2CCN(c3nc(OCC45CCCN4CCC5)nc4c3CCN(c3cccc5cccc(Cl)c35)C4)C[C@@H]2CC#N)n1 [Compound 28],100 to 500,–,"Log D, pH 7.4 ([1]; pH 7.4, 1-octanol/phosphate buffer): 3.22; Ksol, pH 7.4 (ug/mL) ([3]; 50 mM phosphate buffer pH 7.4): 43.66 ug/mL"
CCc1c(Cl)cccc1-c1ncc2c(N3CCN(C(=O)/C=C/CN4[C@@H]5CC[C@H]4COC5)[C@@H](CC#N)C3)nc(OC[C@@]34CCCN3C[C@H](F)C4)nc2c1F [Compound 281],10 to 100,–,–
N#CC[C@H]1CN(c2nc(OC[C@@]34CCCN3C[C@H](F)C4)nc3c(F)c(-c4cccc(Cl)c4C4CCC4)ncc23)CCN1C(=O)/C=C/CN1[C@@H]2CC[C@H]1COC2 [Compound 282],10 to 100,–,–
CN1CCN(C/C=C/C(=O)N2CCN(c3nc(OC[C@@]45CCCN4C[C@H](F)C5)nc4c(F)c(-c5cccc(Cl)c5C5CC5)ncc34)C[C@@H]2CC#N)CC1 [Compound 286],10 to 100,–,–
Cc1nccc(/C=C/C(=O)N2CCN(c3nc(OC[C@@]45CCCN4C[C@H](F)C5)nc4c(F)c(-c5ccccc5C(F)F)ncc34)C[C@@H]2CC#N)n1 [Compound 290],> 500,–,–
N#CC[C@H]1CN(c2nc(OC[C@@]34CCCN3C[C@H](F)C4)nc3c(F)c(-c4cccc5cccc(Cl)c45)ncc23)CCN1C(=O)/C=C/CN1C[C@H]2COC[C@H]21 [Compound 291],10 to 100,–,–
C[C@@H]1CN(C/C=C/C(=O)N2CCN(c3nc(OC[C@@]45CCCN4C[C@H](F)C5)nc4c(F)c(-c5cccc(Cl)c5C5CC5)ncc34)C[C@@H]2CC#N)C[C@@H](C)O1 [Compound 301],10 to 100,–,–
CCN1CC[C@@H]1/C=C/C(=O)N1CCN(c2nc(OC[C@@]34CCCN3C[C@H](F)C4)nc3c(F)c(-c4cccc(Cl)c4C4CC4)ncc23)C[C@@H]1CC#N [Compound 312],10 to 100,–,–
CC(C)N1CC[C@@H]1/C=C/C(=O)N1CCN(c2nc(OC[C@@]34CCCN3C[C@H](F)C4)nc3c(F)c(-c4cccc(Cl)c4C4CC4)ncc23)C[C@@H]1CC#N [Compound 313],100 to 500,–,–
C=C(C)c1c(Cl)cccc1-c1ncc2c(N3CCN(C(=O)/C=C/CN4C5CCC4COC5)[C@@H](CC#N)C3)nc(OC[C@@]34CCCN3C[C@H](F)C4)nc2c1F [Compound 326],< 10,–,–
"Cc1cc(N)nc(C2Cc3nc(OC[C@@]45CCCN4C[C@H](F)C5)nc(N4CCN(C(=O)/C=C/CN5CCOCC5)[C@@H](CC#N)C4)c3CC2C)c1C(F)(F)F (stereo partly drawn) [Example 67, 2-((2S)-4-(7-(6-amino-4-methyl-3-(trifluoromethyl)pyridin-2-yl)-2-(((2R,7aS)-2-fluorotetrahydro-1H-pyrrolizin-7a(5H)-yl)methoxy)-6-methyl-5,6,7,8-tetrahydroquinazolin-4-yl)-1-((E)-4-morpholinobut-2-enoyl)piperazin-2-yl)acetonitrile]",–,78.2,–
"Cc1cc(N)nc(C2Cc3nc(OC[C@@]45CCCN4C[C@H](F)C5)nc(N4CCN(C(=O)/C=C/C5CCN5C)[C@@H](CC#N)C4)c3CC2C)c1C(F)(F)F (stereo partly drawn) [Example 68, 2-((2S)-4-(7-(6-amino-4-methyl-3-(trifluoromethyl)pyridin-2-yl)-2-(((2R,7aS)-2-fluorohexahydro-1H-pyrrolizin-7a-yl)methoxy)-6-methyl-5,6,7,8-tetrahydroquinazolin-4-yl)-1-((E)-3-(1-methylazetidin-2-yl)acryloyl)piperazin-2-yl)acetonitrile]",–,102,–

# More lines, main results first:
IC50 [2] [nM],solubility kinetic at 2 h [3] [µg/mL],SMILES,further results
10 to 100,–,"Cc1cc(N)nc(C2Cc3nc(OC[C@@]45CCCN4C[C@H](F)C5)nc(N4CCN(C(=O)/C=C/CN5CCOCC5)[C@@H](CC#N)C4)c3CC2C)c1C(F)(F)F (mixture of isomers) [Example 67, 2-((2S)-4-(7-(6-amino-4-methyl-3-(trifluoromethyl)pyridin-2-yl)-2-(((2R,7aS)-2-fluorotetrahydro-1H-pyrrolizin-7a(5H)-yl)methoxy)-6-methyl-5,6,7,8-tetrahydroquinazolin-4-yl)-1-((E)-4-morpholinobut-2-enoyl)piperazin-2-yl)acetonitrile]",logD [1]: 2.98
< 10,0.28,N#CC[C@H]1CN(c2nc(OC[C@@]34CCCN3C[C@H](F)C4)nc3c(F)c(-c4cccc5cccc(Cl)c45)ncc23)CCN1C(=O)/C=C/c1nc(C(F)F)no1 [Compound 20],logD [1]: 2.61
< 10,103,N#CC[C@H]1CN(c2nc(OCC34CCCN3CCC4)nc3c(F)c(-c4cccc5cccc(Cl)c45)ncc23)CCN1C(=O)/C=C/c1nc(C(F)F)no1 [Compound 27],logD [1]: 2.52
10 to 100,106,N#CC[C@H]1CN(c2nc(OCC34CCCN3CCC4)nc3c(F)c(-c4cccc5cccc(Cl)c45)ncc23)CCN1C(=O)/C=C/CN1CCOCC1 [Compound 149],–
< 10,89.1,Cc1nccc(/C=C/C(=O)N2CCN(c3nc(OCC45CCCN4CCC5)nc4c(F)c(-c5cccc6ccc(F)c(Cl)c56)ncc34)C[C@@H]2CC#N)n1 [Compound 155],–
< 10,–,N#CC[C@H]1CN(c2nc(OC[C@@]34CCCN3C[C@H](F)C4)nc3c(F)c(-c4cccc(Cl)c4C4CC4)ncc23)CCN1C(=O)/C=C/CN1CC2CCC1CO2 (stereo partly shown) [Compound 279],–
10 to 100,–,CN1CCN(C/C=C/C(=O)N2CCN(c3nc(OC[C@@]45CCCN4C[C@H](F)C5)nc4c(F)c(-c5cccc6cccc(Cl)c56)ncc34)C[C@@H]2CC#N)CC1 [Compound 280],–
< 10,–,N#CC[C@H]1CN(c2nc(OC[C@@]34CCCN3C[C@H](F)C4)nc3c(F)c(-c4cccc(Cl)c4C4CC4)ncc23)CCN1C(=O)/C=C/CN1CC[C@@H](F)C1 [Compound 284],–
< 10,–,CO[C@@H]1CCN(C/C=C/C(=O)N2CCN(c3nc(OC[C@@]45CCCN4C[C@H](F)C5)nc4c(F)c(-c5cccc(Cl)c5C5CC5)ncc34)C[C@@H]2CC#N)C1 [Compound 288],–
< 10,–,N#CC[C@H]1CN(c2nc(OC[C@@]34CCCN3C[C@H](F)C4)nc3c(F)c(-c4cccc(Cl)c4C(F)(F)F)ncc23)CCN1C(=O)/C=C/CN1CCOCC1 [Compound 296],–
< 10,–,N#CC[C@H]1CN(c2nc(OC[C@@]34CCCN3C[C@H](F)C4)nc3c(F)c(-c4cccc5cccc(Cl)c45)ncc23)CCN1C(=O)/C=C/CN1CC[C@H](OC(F)F)C1 [Compound 303],–
< 10,–,N#CC[C@H]1CN(c2nc(OC[C@@]34CCCN3C[C@H](F)C4)nc3c(F)c(-c4cccc5cccc(Cl)c45)ncc23)CCN1C(=O)/C=C/CN1CC[C@@H](OC(F)F)C1 [Compound 304],–
< 10,–,CC(=O)N1CCN(C/C=C/C(=O)N2CCN(c3nc(OC[C@@]45CCCN4C[C@H](F)C5)nc4c(F)c(-c5cccc6cccc(Cl)c56)ncc34)C[C@@H]2CC#N)CC1 [Compound 324],–
